Measured values published in patent US11800869B2, “Use of 6-oxo-1,4,5,6-tetrahydropyridazine-3-carboxylic acid, 1-methyl 6-oxo-1,4,5,6-tetrahydropyridazine-3-carboxylic acid and 1-alkyl-6-oxo-1,4,5,6-tetrahydropyridazine-3-carboxylic acid for improving growth performance in plants” (Advanced Crop Chem LLP, priority 2020, dated 2023).

Columns and labels:
Assay type in all cases: in vivo
[1] = system: Corn; assay: Foliar treatment dose series, root and shoot fresh weight, corn (Example 8); conditions: 35 days post treatment; for Root, FWt: dose 0: 2.3; for Shoot, FWt: dose 0: 6.1
Experimental: Corn and wheat plants were given a foliar treatment […] (as described in Example 2) with 6-oxo-1,4,5,6 tetrahydropyridazine-3-carboxylic acid (THP) and then assessed for root and shoot biomass. Three treatment dosages were applied (Table 2). Plants were grown in a greenhouse with a diurnal cycle of 55-75F with ambient light. The plants were grown in a coarse river sand in 4″ pots with 0.5 g of Osmacote/pot. The mean root and shoot fresh weights were assessed at 35 days post treatment.

[2] = system: Wheat seeds; assay: Wheat seed treatment, in vitro germination and early growth compared with Take Off (Example 11); conditions: 10 g per ton of seed; petri dishes, 20C; FIG. 6
Experimental: Referring to FIG. 6, illustrated are three photographs 600 of an In vitro assessment of the effects on the germination and early stage growth of wheat following treatment of naked wheat seed with of 6-oxo-1,4,5,6 tetrahydropyridazine-3-carboxylic acid. Untreated 610, THP 620 and a commercial seed treatment, Take Off® 630. The seed shown in 620 was grown under natural daylight conditions at 20-22 degrees Centigrade. Wheat seeds were treated with 6-oxo-1,4,5,6 tetrahydropyridazine-3-carboxylic acid or a commercial seed treatment at labeled rates (Take Off ST) and allowed to germinate to examine and compare the effects of temperature on germination. Wheat seeds were treated with 6-oxo-1,4,5,6 tetrahydropyridazine-3-carboxylic acid or Take Off, a commercial biostimulant (that claims faster germination and emergence). The treated seeds received the treatment compounds at the rate of 10 g per ton of seed utilizing the same dosing methodology as Example 1. However in this case seeds were germinated on moistened absorbent paper towel discs in closed petri dishes. The seeds were incubated at 20C in darkness until germination commenced and then grown in natural diurnal conditions for a further 12 days.

[3] = system: Wheat; assay: Seed treatment plus foliar spray, root and shoot biomass and emergence, wheat (Example 2)
Experimental: Winter wheat variety AWC 13 seeds were treated with either 6-oxo-1,4,5,6-tetrahydropyridazine-3-carboxylic acid (THP) or 1-methyl 6-oxo-1,4,5,6 tetrahydropyridazine-3-carboxylic acid (MTHP) at an effective rate of 10g diluted in 2 L water plus 0.25% Nouryon wetter and applied to 1 ton of seed. These seed were planted in coarse river sand and grown in a greenhouse under ambient light at the greenhouse at 21° C. Plants were irrigated every other day with water containing 50% strength Hoaglands solution. Plants were assessed for emergence and biomass accumulation 30 days after planting. The plants from seeds treated with 6-oxo-1,4,5,6-tetrahydropyridizin-3-carboxylic acid or 1-methyl 6-oxo-1,4,5,6 tetrahydropyridazine-3-carboxylic acid had larger root biomasses (0.83, 0.85 g, dry weight/plant) compared with plants from untreated seeds (0.65 g dry weight/plant). Wheat, corn and pepper seeds were treated with 6-oxo-1,4,5,6-tetrahydropyridizine-3-carboxylic acid (THP) using the same methodology and growth conditions as described in example 1 and the resulting plants were also treated with a light foliar cover spray using an electric hand-held sprayer. (100 g in 200 L water plus 0.25% Nouryon wetter) of 6-oxo-1,4,5,6 tetrahydropyridazine-3-carboxylic acid (30 days post emergence (wheat at Zadoks GS 14 (see FIG. 1), maize at V2, Pepper at 3-4 leaf stage) and then assessed for root and shoot biomass 45 days later. At 75 days post planting the plants were assessed for root and shoot biomass as measured with dry weight.

[4] = system: Wheat seeds; assay: Wheat seed treatment, seedling emergence at two temperatures (Example 15); conditions: 10 g/ton of seeds
Experimental: Wheat seeds were treated with 6-oxo-1,4,5,6-tetrahydropyridizin-3-carboxylic acid at two different temperature regimes to investigate the affect on germination. Soil temperature impacts the percentage of seeds germinating and how fast seedlings emerge from the soil. Each of these parameters influences how well the plants develop and ultimately crop yield. […] Wheat seeds were treated with 6-oxo-1,4,5,6 tetrahydropyridazine-3-carboxylic acid (THP) at a rate of 10 g/ton of seeds in accordance with the methodology of example 1. Seeds were planted in 12″×12″ germination trays in a 1″ grid, 100 seeds per tray. Growth media was coarse river sand. Additionally, each cell in the grid received one granule of Osmacote approximately above where the seed was planted. Trays were irrigated every day. The seeds were then allowed to germinate at controlled environment chambers at either 10C (50F) or 20C (68 F) to examine the effects at different temperatures. The number of seedlings emerged was tracked daily.

[5] = system: wheat seedlings (Var. VitPro); assay: Foliar treatment of wheat seedlings, number of tillers (Example 13); conditions: counted at Zadoks GS 15, untreated 3.7
Experimental: Wheat seedlings were given foliar treatments with a range of concentrations of 6-oxo-1,4,5,6 tetrahydropyridazine-3-carboxylic acid and the seedlings were grown and the numbers of tillers each plant produced was monitored as shown in Table 4. The number of tillers is considered positively related to grain yield. Sets of wheat seedlings (Var. VitPro) were given foliar treatments of 6-oxo-1,4,5,6 tetrahydropyridazine-3-carboxylic acid at concentrations of 0.1 mM, 0.01 mM or 0.001 mM *in a standard nutrient solution. Seedlings were given one foliar treatment at Zadoks GS 12 (FIG. 1); the plants grown in a greenhouse and fed a standard plant nutrient solution. The untreated control plants were sprayed with the nutrient solution containing sodium dodecyl sulfate, 0.1% and glycerol 1.2%. The number of tillers for each plant were counted at Zadoks GS 15 (FIG. 1) and the average number of tillers per plant calculated.

[6] = foliar dose 50 g/ha in 200 L/ha
[7] = foliar dose 100 g/ha in 200 L/ha
[8] = foliar dose 200 g/ha in 200 L/ha
[9] = seed treatment plus foliar spray 100 g in 200 L, 75 days post planting

O=C1CCC(C(=O)O)=NN1 [THP, 6-oxo-1,4,5,6 tetrahydropyridazine-3-carboxylic acid]
Root, FWt [1, 6]: 2.7 g | Shoot, FWt [1, 6]: 7.8 g | Root, FWt [1, 7]: 3.4 g | Shoot, FWt [1, 7]: 7.2 g | Root, FWt [1, 8]: 1.8 g | Shoot, FWt [1, 8]: 5.1 g | root biomass compared with untreated seeds or Take Off treated seeds [2]: greater root biomass | shoots compared with untreated seeds or Take Off treated seeds [2]: longer bright green shoots | Root Dry Weight, % Difference vs Untreated [3, 9]: 12% | Shoot Dry Weight, % Difference vs Untreated [3, 9]: 7% | Emergence, % Difference vs Untreated ([3]; seed treatment, % Emergence at 10 days post planting): 16% | % Emergence ([4]; 10 C., 5 days after planting): 0% | % Emergence ([4]; 10 C., 6 days after planting): 0% | % Emergence ([4]; 10 C., 7 days after planting): 11% | % Emergence ([4]; 10 C., 8 days after planting): 19% | % Emergence ([4]; 10 C., 9 days after planting): 27% | % Emergence ([4]; 10 C., 10 days after planting): 60% | % Emergence ([4]; 10 C., 11 days after planting): 68% | % Emergence ([4]; 20 C., 5 days after planting): 14% | % Emergence ([4]; 20 C., 6 days after planting): 48% | % Emergence ([4]; 20 C., 7 days after planting): 80% | % Emergence ([4]; 20 C., 8 days after planting): 100% | % Emergence ([4]; 20 C., 9 days after planting): 100% | % Emergence ([4]; 20 C., 10 days after planting): 100% | % Emergence ([4]; 20 C., 11 days after planting): 100% | Tillers per plant, average ([5]; foliar treatment 0.001 mM at Zadoks GS 12): 4.1 | Tillers per plant, average ([5]; foliar treatment 0.01 mM at Zadoks GS 12): 9.5 | Tillers per plant, average ([5]; foliar treatment 0.1 mM at Zadoks GS 12): 7.4
